Earlier results in US20210319872A1, “DRUG AND DEVICE COMBINATION PRODUCTS WITH IMPROVED SAFETY AND EFFICACY PROFILES” (priority 2016, published 2021).
Read-outs that look alike come from different tables or passages of the source.

[1] = chronic hepatitis C-associated thrombocytopenia
[2] = chronic idiopathic thrombocytopenic purpura

CN[C@H]1CC[C@@H](c2ccc(Cl)c(Cl)c2)c2ccccc21 [Sertraline (Zoloft)]
Abnormal ejaculation (in vivo): Reproductive: Abnormal ejaculation (7% to 19%), Reduced libido
Constipation (in vivo): Gastrointestinal: Constipation (3% to 8%), Diarrhea (13% to 24%),
Diarrhea (in vivo): Gastrointestinal: Constipation (3% to 8%), Diarrhea (13% to 24%),
Dizziness (in vivo): Neurologic: Dizziness (6% to 17%), Headache (25%), Insomnia
Fatigue (in vivo): Other: Fatigue (10% to 16%)
Headache (in vivo): Neurologic: Dizziness (6% to 17%), Headache (25%), Insomnia
Indigestion (in vivo): Indigestion (6% to 13%), Nausea (13% to 30%), Nausea and
Insomnia (in vivo): (12% to 28%), Somnolence (2% to 15%), Tremor (5% to 11%)
Nausea (in vivo): Indigestion (6% to 13%), Nausea (13% to 30%), Nausea and
Nausea and vomiting (in vivo): vomiting (2% to 30%)
Reduced libido (in vivo): (up to 11%)
Somnolence (in vivo): (12% to 28%), Somnolence (2% to 15%), Tremor (5% to 11%)
Tremor (in vivo): (12% to 28%), Somnolence (2% to 15%), Tremor (5% to 11%)

Nesiritide (Natrecor)
Dizziness (incidence) (in vivo): Neurologic: Dizziness (2%), Headache (7%)
Headache (incidence) (in vivo): Neurologic: Dizziness (2%), Headache (7%)
Hypotension (incidence) (in vivo): Cardiovascular: Hypotension (4% to 17%)
Nausea (incidence) (in vivo): Gastrointestinal: Nausea (3%)
Serum creatinine raised (incidence) (in vivo): Renal: Serum creatinine raised (17% to 31.4%)

CCCCc1ncc(/C=C(\Cc2cccs2)C(=O)O)n1Cc1ccc(C(=O)O)cc1 [Eprosartan (Teveten)]
Dizziness (in vivo): Neurologic: Dizziness (3.8%)
Fatigue (in vivo): Other: Fatigue (1.4%)
Myalgia (in vivo): Musculoskeletal: Myalgia (1.9%)
Neutropenia (in vivo): Hematologic: Neutropenia (1.3%)
Serious side effects, listed without incidence or only as rare (in vivo): Dermatologic: Edema of face (rare)

CN(CCOc1ccc(NS(C)(=O)=O)cc1)CCc1ccc(NS(C)(=O)=O)cc1 [Tikosyn]
Chest pain (in vivo): Cardiovascular: Chest pain (10%)
Dizziness (in vivo): Neurologic: Dizziness (8%), Headache (11%)
Headache (in vivo): Neurologic: Dizziness (8%), Headache (11%)
Heart block (in vivo): Cardiovascular: Heart block (up to 1.2%), Prolonged QT interval,
Torsades de pointes (in vivo): Torsades de pointes (0.8%), Ventricular arrhythmia (up to 14.5%),
Ventricular arrhythmia (in vivo): Torsades de pointes (0.8%), Ventricular arrhythmia (up to 14.5%),
Ventricular tachycardia (in vivo): ≤ 12.4%)
Serious side effect, Cardiovascular (listed without frequency): Cardiovascular: Heart block (up to 1.2%), Prolonged QT interval,

CCCCc1nc(Cl)c(CO)n1Cc1ccc(-c2ccccc2-c2nnn[nH]2)cc1 [Losartan (Cozaar)]
Anemia (in vivo): Hematologic: Anemia (14%)
Chest pain (in vivo): Cardiovascular: Chest pain (12%), Hypotension (7%)
Cough (in vivo): Respiratory: Cough (10%)
Diarrhea (in vivo): Gastrointestinal: Diarrhea (15%)
Dizziness (in vivo): Neurologic: Asthenia, Dizziness (3%)
Hyperkalemia (in vivo): Endocrine metabolic: Hyperkalemia (7%), Hypoglycemia (14%)
Hypoglycemia (in vivo): Endocrine metabolic: Hyperkalemia (7%), Hypoglycemia (14%)
Hypotension (in vivo): Cardiovascular: Chest pain (12%), Hypotension (7%)

CC#CCn1c(N2CCC[C@@H](N)C2)nc2c1c(=O)n(Cc1nc(C)c3ccccc3n1)c(=O)n2C [Tradjenta]
Hypoglycemia (combination therapy): combination therapy, 22.9%)
Nasopharyngitis (in vivo): Respiratory: Nasopharyngitis (7%)
Hypoglycemia (monotherapy): Endocrine metabolic: Hypoglycemia (monotherapy, 6.6%;

COC(=O)[C@H](c1ccccc1Cl)N1CCc2sccc2C1 [Clopidogrel (Plavix ®)]
Agranulocytosis (in vivo): Hematologic: Agranulocytosis (Less than 1%), Aplastic anemia
Aplastic anemia (in vivo): (less then 1%), Bleeding, Major (0.8% to 3.7%), Pancytopenia
Bleeding, Major (in vivo): (less then 1%), Bleeding, Major (0.8% to 3.7%), Pancytopenia
Bleeding, Non-major (in vivo): Hematologic: Bleeding, Non-major (3.6% to 5.1%)
Gastrointestinal hemorrhage (in vivo): Gastrointestinal: Colitis, Gastrointestinal hemorrhage (2%; 2.7%
Intraocular hemorrhage (in vivo): Ophthalmic: Intraocular hemorrhage (0.05%)

CS(=O)(=O)O.Fc1ccc([C@@H]2CCNC[C@H]2COc2ccc3c(c2)OCO3)cc1 [Brisdelle]
Asthenia (in vivo): Neurologic: Asthenia (2.9% to 22%), Dizziness (6% to 14%),
Constipation (in vivo): Gastrointestinal: Constipation (4.9% to 16%), Diarrhea (7.9% to
Diaphoresis (in vivo): Dermatologic: Diaphoresis (1% to 14%)
Dizziness (in vivo): Neurologic: Asthenia (2.9% to 22%), Dizziness (6% to 14%),
Insomnia (in vivo): vasomotor symptoms, 6.3%), Insomnia (11% to 24%), Somnolence
Nausea (in vivo): ≤ 19.2%), Loss of appetite (2% to 9%), Nausea (up to 36.3%),
Reduced libido (in vivo): 9%), Reduced libido (males, 6% to 15%; females, 0% to 9%)
Serious side effect, Other (in vivo): Other: Serotonin syndrome
Serious side effect, Psychiatric (in vivo): Psychiatric: Depression, Exacerbation, Suicidal thoughts, Suicide
Somnolence (in vivo): (12.7% to 24%), Tremor (up to 14.7%)
Tremor (in vivo): (12.7% to 24%), Tremor (up to 14.7%)
Xerostomia (in vivo): Xerostomia (10.8% to 20.6%)

O=[N+]([O-])OCC(CO[N+](=O)[O-])O[N+](=O)[O-] [Nitrates (Nitroglycerin)]
Common side effect listed (incidence not given) (in vivo): Dermatologic: Flushing
Dizziness (incidence) (in vivo): Neurologic: Dizziness (5%), Headache (63% to 64%),
Headache (incidence) (in vivo): Neurologic: Dizziness (5%), Headache (63% to 64%),
Hypotension (incidence) (in vivo): Cardiovascular: Hypotension (4%)
Lightheadedness (incidence) (in vivo): Lightheadedness (6%)

CC1=NN(c2ccc(C)c(C)c2)C(=O)/C1=N\Nc1cccc(-c2cccc(C(=O)O)c2)c1O [Promacta]
AST/SGOT level raised (Adult): 4%
Headache (Chronic hepatitis C-associated thrombocytopenia and aplastic anemia): thrombocytopenia and aplastic anemia, 21%; chronic idiopathic
Cough (aplastic anemia): Respiratory: Cough (Aplastic anemia, 23%; chronic ITP, pediatric,
Diarrhea (aplastic anemia): 21%
Fever (aplastic anemia): 14%
Nausea (aplastic anemia): 33%), Pain in throat (Chronic idiopathic thrombocytopenic
Pain in throat (aplastic anemia): 14%
ALT/SGPT level raised (chronic ITP, pediatric): 6%
Cough (chronic ITP, pediatric): 9%
Anemia [1]: thrombocytopenia, 40%)
Diarrhea [1]: thrombocytopenia, 19%; chronic idiopathic thrombocytopenic
Fever [1]: 30%
Liver failure [1]: associated thrombocytopenia, 7%), Liver function tests abnormal
Nausea [1]: (Chronic hepatitis C-associated thrombocytopenia, 19%; chronic
Portal vein thrombosis [1]: C-associated thrombocytopenia, 1%), Thrombosis (chronic
Thrombosis [1]: hepatitis C-associated thrombocytopenia, 3%)
Fatigue [2]: purpura, 4%), Fever (Chronic hepatitis C-associated
Headache [2]: thrombocytopenic purpura, 10%)
Pain in throat [2]: 4%
Diarrhea (chronic idiopathic thrombocytopenic purpura, adults): 9%
Diarrhea (chronic idiopathic thrombocytopenic purpura, pediatric): 5%
Epistaxis (in vivo): 13%
Liver function tests abnormal (in vivo): (11%)
Pharyngitis (in vivo): 4%
Urinary tract infectious disease (in vivo): Renal: Urinary tract infectious disease (5%)
Vomiting (in vivo): Vomiting (6%)
Serious side effect, Hematologic (listed without frequency): Hematologic: Bleeding, Portal vein thrombosis (chronic hepatitis
Serious side effect, Hepatic (listed without frequency): Hepatic: Hepatotoxicity, Liver failure (chronic hepatitis C-
Serious side effect, Renal (listed without frequency): Renal: Acute renal failure
AST/SGOT level raised (pediatric): 5%

COc1ccc2c3c1O[C@H]1[C@@H](O)C=C[C@H]4[C@@H](C2)N(C)CC[C@@]341 [Codeine]
Common side effect, Gastrointestinal (in vivo): Gastrointestinal: Constipation, Nausea, Vomiting
Common side effect, Neurologic (in vivo): Neurologic: Dizziness, Lightheadedness, Sedated, Somnolence
Common side effect, Respiratory (in vivo): Respiratory: Dyspnea
Serious side effect, Cardiovascular (in vivo): Cardiovascular: Hypotension
Serious side effect, Gastrointestinal (in vivo): Gastrointestinal: Bowel obstruction, Pancreatitis
Serious side effect, Neurologic (in vivo): Neurologic: CSF pressure: raised, Seizure
Serious side effect, Respiratory (in vivo): Respiratory: Respiratory depression

COc1cccc(C2(O)CCCCC2CN(C)C)c1 (stereo not drawn) [Tramadol (Ultram)]
Anaphylactoid reaction (in vivo): Immunologic: Anaphylactoid reaction (less than 1%)
Constipation (in vivo): Gastrointestinal: Constipation (10% to 46%), Nausea (13% to
Dizziness (in vivo): Neurologic: Dizziness (7% to 33%), Headache (3% to 32%),
Dyspnea (in vivo): Respiratory: Dyspnea (less than 5%), Respiratory depression
Flushing (in vivo): Dermatologic: Flushing (7.7% to 15.8%), Pruritus (3% to 11.9%)
Headache (in vivo): Neurologic: Dizziness (7% to 33%), Headache (3% to 32%),
Insomnia (in vivo): Insomnia (1% to 10.9%), Somnolence (4% to 25%)
Myocardial infarction (in vivo): Cardiovascular: Myocardial infarction (0.5% to less than 1%)
Pancreatitis (in vivo): Gastrointestinal: Pancreatitis (0.5% to less than 1%)
Pruritus (in vivo): Dermatologic: Flushing (7.7% to 15.8%), Pruritus (3% to 11.9%)
Serotonin syndrome (in vivo): Other: Serotonin syndrome (less than 1%)
Somnolence (in vivo): Insomnia (1% to 10.9%), Somnolence (4% to 25%)
Vomiting (in vivo): 40%), Vomiting (3% to 17%), Xerostomia (1% to 10%)
Xerostomia (in vivo): 40%), Vomiting (3% to 17%), Xerostomia (1% to 10%)

C[C@H]1O[C@@H](O[C@H]2[C@@H](O)C[C@H](O[C@H]3[C@@H](O)C[C@H](O[C@H]4CC[C@@]5(C)[C@H](CC[C@@H]6[C@@H]5CC[C@]5(C)[C@@H](C7=CC(=O)OC7)CC[C@]65O)C4)O[C@@H]3C)O[C@@H]2C)C[C@H](O)[C@@H]1O [Digitoxin]
Common side effects, listed without incidence (in vivo): Enlarged Breasts
Infrequent side effects, listed (in vivo): Sinus Bradycardia

C[C@H](CS)C(=O)N1CCC[C@H]1C(=O)O [Captopril (Capoten)]
Agranulocytosis (in vivo): Hematologic: Agranulocytosis (0.1% to 0.2%), Neutropenia (0.1%
Angioedema (in vivo): Other: Angioedema (0.1%)
Cough (in vivo): Respiratory: Cough (0.5% to 2%)
Hyperkalemia (in vivo): Endocrine metabolic: Hyperkalemia (11%)
Neutropenia (in vivo): Hematologic: Agranulocytosis (0.1% to 0.2%), Neutropenia (0.1%

Cc1ccsc1C(=CCCN1CCC[C@@H](C(=O)O)C1)c1sccc1C [Gabitril]
Confusion (in vivo): 5%
Disturbance in speech (in vivo): 4%
Nausea (in vivo): 11%
Pruritus (in vivo): Dermatologic: Pruritus (2%)
Serious side effect, Dermatologic (listed without frequency): Dermatologic: Stevens-Johnson syndrome
Serious side effect, Neurologic (listed without frequency): Seizure, in patients without epilepsy
Serious side effect, Psychiatric (listed without frequency): Psychiatric: Suicidal thoughts

CC1(C)O[C@@H]2[C@@H](CO[C@@]3(COS(N)(=O)=O)OC(C)(C)O[C@@H]23)O1 [Trokendi XR]
Hyperammonemia (Adolescents): Endocrine metabolic: Hyperammonemia (Adolescents, 26%),
Serious side effect, Hepatic (listed without frequency): Hepatic: Liver failure
Serious side effect, Neurologic (listed without frequency): Neurologic: Drug-induced encephalopathy
Serious side effect, Psychiatric (listed without frequency): Psychiatric: Suicidal thoughts
Flushing (pediatrics): Dermatologic: Flushing (pediatrics, 5%)
